Paper PMC11959706, “Allatostatin-C signaling in the crab Carcinus maenas is implicated in the ecdysis program” (The Journal of Experimental Biology, 2025)
Bridge positions count the residues as written; N and C are the ends. Ends that are not written are not given here.

Legend:
[1] = system: antiserum raised against Manduca sexta AST-C; experiment: AST-C radioimmunoassay standard curves and cross-reactivity; format: binding; conditions: competitive RIA with iodinated AST-C tracer, antiserum 1:1000; typical standard curves
Procedure: AST-C (300 pmol, dissolved in 10 µl 200 mmol l^−1 phosphate buffer at pH 7.5) was radio iodinated with 9.25–12.5 MBq NaI^125 in 10^−5 mol l^−1 NaOH (PerkinElmer, Boston MA), using Chloramine-T ([Bolton, 1989]). Following termination of the reaction (4.3 µg cysteine in 100 µl phosphate buffer) and quenching (500 µl of 0.2 mg ml^−1 KI in phosphate buffer), radiolabeled peptide was separated from unincorporated iodide on Sep-Pak C18 cartridges (Waters, Milford, MA, USA), by firstly washing with 10 ml of 200 mmol l^−1 phosphate buffer then eluting the peptide with 40% isopropanol in 500 µl fractions. Small quantities (2 µl) were then taken for counting. Specific activities of 8–16 TBq mmol^−1 were routinely obtained.
RIA conditions were as follows: iodinated AST-C 35,000 dpm per 50 µl PBS containing 0.05% BSA and 0.02% sodium azide. An antiserum raised against Manduca sexta AST-C (a generous gift from Dr N. Audsley, FERA, York) was used at 1:1000 in PBS at 50 µl per tube. Standard peptides 2–2000 fmol per 50 µl and unknowns were assayed in duplicate. Tubes were first incubated for 6 h at room temperature, without tracer, which was then added, followed by 4°C incubation overnight. […]

[2] = system: Y-organs; experiment: Y-organ in vitro bioassay of ecdysteroid synthesis (ecdysteroid RIA); format: cell-based, Carcinus maenas; conditions: 100 nmol l^−1, 24 h incubation; N=3–6
Procedure: To determine the possible activity of AST-C and/or AST-CC on ecdysteroid synthesis, Y-organs (YOs) were dissected from ice-anaesthetized crabs and used in the in vitro bioassay as detailed previously ([Webster, 1986]). Following 24 h incubations, culture medium was aspirated and snap frozen in liquid nitrogen prior to ecdysteroid RIA. YOs were sonicated in PBS, centrifuged (13,000 g for 5 min at room temperature) and assayed for protein concentration using a BCA protein kit (EMD Millipore, Burlington MA, USA). Protein concentrations (BSA standards) were used to normalize ecdysteroid synthesis between YO pairs.
Ecdysteroid RIAs were performed on 20 µl aliquots of culture medium using the following conditions: 100 μl 1:2000 anti-ecdysteroid serum HB-2E (a kind gift from R. D Watson, Alabama University), 100 µl H^−3 Ponasterone A [24, 25, 26, 27-3H (N), 3.5 TBq mmol^−1 (American Radiochemical Company, St Louis, MO, USA)] at 28,000 dpm per tube. 25-Deoxyecdysone (a kind gift from Prof. R. Lafont, Sorbonne University, Paris) was used as a standard (range 2500–19.5 pg per tube), and unknowns and standards were assayed in triplicate. Bound was separated from free using 50 µl per tube immobilized donkey anti-rabbit nitrocellulose suspension (Sac-Cel), as detailed for the AST-C RIA. Pellets were resuspended in 600 µl Hi-Safe 3 (Perkin Elmer) prior to counting. Using this RIA, both ecdysone and 25-deoxyecdysone (the two ecdysteroids synthesized by C. maenas YOs) were equally recognized.

[3] = molecular target: AST-C receptor; conditions: cited from earlier work; for EC50: Apis mellifera single AST-C receptor, ref Urlacher et al., 2016, read-out: EC50, receptor activation; for ED50, receptor activation: Tribolium castaneum AST-C receptor, ref Audsley et al., 2013
Description: Thus, the cognate receptor for AST-CCC remains elusive. Despite the well-known similarity in receptor sequences between AST-CR and the somatostatin receptor ([Krienkamp et al., 2002]; [Mayoral et al., 2010]; [Jékely, 2013]; [Verl ...

[4] = system: heart; conditions: H. americanus; often seen, the converse in some individuals; ref Dickinson et al., 2018; cited from earlier work

For “GNGDGRLYWRCYFNAVSCF (disulfide 11-18 (inferred)) [AST-CC, C. maenas AST-C family neuropeptide; synthetic (GenScript)]”, the “ED50 in AST-C RIA standard curve” value [1] is given as 8000 fmol per tube, the “Effect on ecdysteroid synthesis by Y-organs” value [2] is given as “entirely without effect” and the EC50 [3] is given as 15.4 nM. The “ED50, receptor activation” value [3] was 105.7 nM and the “Effect on heart rate” value [4] was “decrease in amplitude and frequency of heart rate”.

In the case of “pQIRYHQCYFNPISCF (disulfide) [AST-C, allatostatin-C, C. maenas AST-C family neuropeptide with C-terminal PISCF motif; synthetic (GenScript)]”, the “ED50 in AST-C RIA standard curve” value [1] is given as 20 fmol per tube, the “Effect on ecdysteroid synthesis by Y-organs” value [2] is given as “entirely without effect” and the EC50 [3] is given as 14.6 nM. For the same substance, the “ED50, receptor activation” value [3] was 25 nM and the “Effect on heart rate” value [4] was “decrease in amplitude and frequency of heart rate”.
